Data: ChEMBL document CHEMBL2069259, “Preclinical strategy to reduce clinical hepatotoxicity using in vitro bioactivation data for >200 compounds” (Chem Res Toxicol, 2012)

Legend:
Liver microsomes [1] = conditions: human, 1.5 h, 100 µM
Liver microsomes [2] = assay: Metabolic stability in human liver microsomes assessed as high signal/noise ratio (S/N of >100) by measuring GSH adduct formation at 100 uM after 90 mins by HPLC-MS analysis; conditions: 1.5 h
Liver microsomes [3] = assay: Metabolic stability in human liver microsomes assessed as GSH adduct formation at 100 uM after 90 mins by HPLC-MS analysis; conditions: 1.5 h
CYP2C19 = CYP2C19 (Homo sapiens, UniProt P33261); assay: Inhibition of human CYP2C19 assessed as ratio of IC50 in absence of NADPH to IC50 for presence of NADPH using 3-butyryl-7-methoxycoumarin as substrate after 30 mins
Sequence of CYP2C19 (P33261 whole entry): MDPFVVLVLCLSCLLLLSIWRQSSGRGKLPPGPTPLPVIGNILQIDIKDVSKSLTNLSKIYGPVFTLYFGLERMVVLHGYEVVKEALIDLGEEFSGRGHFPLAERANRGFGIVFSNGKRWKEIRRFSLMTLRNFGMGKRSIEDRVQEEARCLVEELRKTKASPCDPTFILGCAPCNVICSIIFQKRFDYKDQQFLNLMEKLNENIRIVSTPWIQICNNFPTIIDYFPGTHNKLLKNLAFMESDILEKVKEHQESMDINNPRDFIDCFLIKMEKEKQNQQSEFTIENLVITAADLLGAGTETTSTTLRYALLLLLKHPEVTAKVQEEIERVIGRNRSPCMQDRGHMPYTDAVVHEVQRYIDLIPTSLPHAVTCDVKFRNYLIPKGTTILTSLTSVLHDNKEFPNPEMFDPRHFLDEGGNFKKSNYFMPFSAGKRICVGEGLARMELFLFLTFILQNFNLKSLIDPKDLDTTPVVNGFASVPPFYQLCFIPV

CYP3A4 = CYP3A4 (Homo sapiens, UniProt P08684); assay: Inhibition of human CYP3A4 assessed as ratio of IC50 in absence of NADPH to IC50 for presence of NADPH using diethoxyfluorescein as substrate after 30 mins
Sequence of CYP3A4 (P08684 whole entry): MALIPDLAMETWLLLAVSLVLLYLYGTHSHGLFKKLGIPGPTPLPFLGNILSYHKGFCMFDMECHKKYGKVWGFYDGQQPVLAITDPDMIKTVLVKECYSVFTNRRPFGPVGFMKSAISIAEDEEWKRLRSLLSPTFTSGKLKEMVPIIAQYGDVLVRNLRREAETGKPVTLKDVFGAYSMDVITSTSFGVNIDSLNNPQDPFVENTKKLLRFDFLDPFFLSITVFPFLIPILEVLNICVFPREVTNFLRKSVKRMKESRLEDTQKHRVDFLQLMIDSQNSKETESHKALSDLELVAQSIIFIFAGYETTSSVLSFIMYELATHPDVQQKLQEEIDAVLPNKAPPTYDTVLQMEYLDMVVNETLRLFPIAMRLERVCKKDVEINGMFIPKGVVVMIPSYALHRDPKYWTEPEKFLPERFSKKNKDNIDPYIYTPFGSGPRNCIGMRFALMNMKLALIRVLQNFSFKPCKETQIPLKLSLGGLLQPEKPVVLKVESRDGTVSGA

[4] = probe 3-butyryl-7-methoxycoumarin

SMILES | Stability (Liver microsomes [2]) | Stability (Liver microsomes [3]) | further results
C[C@]12CC[C@@H]3c4ccc(O)cc4CC[C@H]3[C@@H]1C[C@@H](O)[C@@H]2O [ESTRIOL] |  |  | Stability (Liver microsomes [1]): Unstable
COc1cc(NS(C)(=O)=O)ccc1Nc1c2ccccc2nc2ccccc12 [AMSACRINE] | Unstable |  | 
COc1cc([C@@H]2c3cc4c(cc3[C@@H](O[C@@H]3O[C@@H]5CO[C@@H](C)O[C@H]5[C@H](O)[C@H]3O)[C@H]3COC(=O)[C@H]23)OCO4)cc(OC)c1O [ETOPOSIDE] | Unstable |  | 
O=P1(N(CCCl)CCCl)NCCCO1 (stereo not drawn) [CYCLOPHOSPHAMIDE ANHYDROUS] |  |  | Stability (Liver microsomes [1]): Unstable
O=C(O)c1cc(/N=N/c2ccc(S(=O)(=O)Nc3ccccn3)cc2)ccc1O [SULFASALAZINE] |  | Stable | IC50 shift at 0.5 h (CYP2C19; [4]): < 2
CC1=C(CC(=O)O)c2cc(F)ccc2/C1=C\c1ccc([S+](C)[O-])cc1 (stereo not drawn) |  |  | Stability (Liver microsomes [1]): Unstable
CCc1ccc(CCOc2ccc(CC3SC(=O)NC3=O)cc2)nc1 (stereo not drawn) [PIOGLITAZONE] |  |  | Stability (Liver microsomes [1]): Unstable
C[C@]12CC[C@@H]3c4ccc(O)cc4CC[C@H]3[C@@H]1CC[C@@H]2O [ESTRADIOL] | Unstable |  | IC50 shift at 0.5 h (CYP3A4; probe diethoxyfluorescein): < 2
C#CCN(C)[C@H](C)Cc1ccccc1 [SELEGILINE] | Unstable |  | 
COC(=O)C1=C(C)NC(C)=C(C(=O)OCC(C)C)C1c1ccccc1[N+](=O)[O-] (stereo not drawn) [NISOLDIPINE] |  |  | Stability (Liver microsomes [1]): Unstable
O=c1ccc2ccccc2o1 [COUMARIN] |  |  | Stability (Liver microsomes [1]): Unstable
CC1(C)O[C@@H]2C[C@H]3[C@@H]4C[C@H](F)C5=CC(=O)C=C[C@]5(C)[C@H]4[C@@H](O)C[C@]3(C)[C@]2(C(=O)CO)O1 [FLUNISOLIDE] | Unstable |  | 
CCCCC1C(=O)N(c2ccccc2)N(c2ccccc2)C1=O [PHENYLBUTAZONE] | Unstable |  | 
C[C@@H](O)[C@H]1C(=O)N2C(C(=O)O)=C(S[C@@H]3CN[C@H](C(=O)N(C)C)C3)[C@H](C)[C@H]12 [MEROPENEM] | Unstable |  | 
CS(=O)(=O)OCCCCOS(C)(=O)=O [BUSULFAN] | Unstable |  | 
CO[C@@]12[C@H](COC(N)=O)C3=C(C(=O)C(C)=C(N)C3=O)N1C[C@@H]1N[C@@H]12 [MITOMYCIN] | Unstable |  | 
CO[C@H]1C[C@H](O[C@H]2[C@H](C)[C@@H](O[C@@H]3O[C@H](C)C[C@H](N(C)C)[C@H]3OC(C)=O)[C@@H](C)C[C@@]3(CO3)C(=O)[C@H](C)[C@@H](OC(C)=O)[C@@H](C)[C@@H](C)OC(=O)[C@@H]2C)O[C@@H](C)[C@@H]1OC(C)=O [TROLEANDOMYCIN] | Unstable |  | 
C#C[C@]1(O)CC[C@H]2[C@@H]3CCC4=Cc5oncc5C[C@]4(C)[C@H]3CC[C@@]21C [DANAZOL] |  |  | Stability (Liver microsomes [1]): Unstable; IC50 shift at 0.5 h (CYP2C19): < 2
NC(=O)N1c2ccccc2C=Cc2ccccc21 [CARBAMAZEPINE] | Unstable |  | 
CC(=O)Oc1ccccc1C(=O)O [ASPIRIN] |  | Stable | IC50 shift at 0.5 h (CYP2C19): < 2
CC(C(=O)O)c1ccc(N2CC=CC2)c(Cl)c1 (stereo not drawn) [PIRPROFEN] |  |  | Stability (Liver microsomes [1]): Unstable
CC(=O)[C@@]1(O)CC[C@H]2[C@@H]3C=C(Cl)C4=CC(=O)[C@@H]5C[C@@H]5[C@]4(C)[C@H]3CC[C@@]21C [CYPROTERONE] | Unstable |  | 
Cc1cn([C@H]2C=C[C@@H](CO)O2)c(=O)[nH]c1=O [STAVUDINE] |  |  | Stability (Liver microsomes [1]): Unstable

SMILES | Stability (Liver microsomes [2]) | Stability (Liver microsomes [3]) | further results
CN(C)c1ccc(O)c2c1C[C@H]1C[C@H]3[C@H](N(C)C)C(O)=C(C(N)=O)C(=O)[C@@]3(O)C(O)=C1C2=O [MINOCYCLINE] |  |  | Stability (Liver microsomes [1]): Unstable
C[C@@H]1[C@H](O)[C@@H](C)/C=C/C=C/C=C/C=C/C=C/C=C/C=C/[C@H](O[C@@H]2O[C@H](C)[C@@H](O)[C@H](N)[C@@H]2O)C[C@@H]2O[C@](O)(C[C@@H](O)C[C@@H](O)[C@H](O)CC[C@@H](O)C[C@@H](O)CC(=O)O[C@H]1C)C[C@H](O)[C@H]2C(=O)O [AMPHOTERICIN B] |  | Stable | IC50 shift at 0.5 h (CYP2C19; [4]): < 2
C=C[C@H]1C[N@@]2CC[C@H]1C[C@@H]2[C@@H](O)c1ccnc2ccc(OC)cc12 [QUINIDINE] | Unstable |  | 
CN/C(=N/CCSCc1nc[nH]c1C)NC#N [CIMETIDINE] | Unstable |  | 
CO/N=C(\C(=O)N[C@@H]1C(=O)N2C(C(=O)O)=C(CSc3nc(=O)c(=O)[nH]n3C)CS[C@H]12)c1csc(N)n1 [CEFTRIAXONE] | Unstable |  | 
CO[C@H]1/C=C/O[C@@]2(C)Oc3c(C)c(O)c4c(O)c(c(/C=N/N5CCN(C)CC5)c(O)c4c3C2=O)NC(=O)/C(C)=C\C=C\[C@H](C)[C@H](O)[C@@H](C)[C@@H](O)[C@@H](C)[C@H](OC(C)=O)[C@@H]1C [RIFAMPIN] | Unstable |  | 
COc1ccccc1OCC(O)COC(N)=O (stereo not drawn) [METHOCARBAMOL] |  | Stable | IC50 shift at 0.5 h (CYP2C19; [4]): < 2
Cc1ccnc2c1NC(=O)c1cccnc1N2C1CC1 [NEVIRAPINE] |  | Stable | IC50 shift at 0.5 h (CYP3A4; probe diethoxyfluorescein): 2
COc1ncnc(NS(=O)(=O)c2ccc(N)cc2)c1OC [SULFADOXINE] |  |  | Stability (Liver microsomes [1]): Unstable
Cc1c(C)c2c(c(C)c1O)CCC(C)(COc1ccc(CC3SC(=O)NC3=O)cc1)O2 (stereo not drawn) [TROGLITAZONE] |  |  | IC50 shift at 0.5 h (CYP3A4): 2; Stability (Liver microsomes [1]): Unstable
Nc1ccc(C(=O)O)c(O)c1 [AMINOSALICYLIC ACID] |  |  | Stability (Liver microsomes [1]): Unstable
Cc1coc2c1CCC(C)C2 (stereo not drawn) [MENTHOFURAN] |  |  | IC50 shift at 0.5 h (CYP2C19; [4]): < 2
CN(C)CCC=C1c2ccccc2CCc2ccccc21 [AMITRIPTYLINE] | Unstable |  | IC50 shift at 0.5 h (CYP2C19; [4]): < 2
CCCCC1C(=O)N(c2ccccc2)N(c2ccc(O)cc2)C1=O (stereo not drawn) [OXYPHENBUTAZONE ANHYDROUS] | Unstable |  | 
CC(C)[C@H]1CC[C@H](C(=O)N[C@H](Cc2ccccc2)C(=O)O)CC1 [NATEGLINIDE] |  |  | Stability (Liver microsomes [1]): Unstable
CN(C)C(=O)Oc1ccc[n+](C)c1 [PYRIDOSTIGMINE] | Unstable |  | IC50 shift at 0.5 h (CYP2C19): 2
NNc1nncc2ccccc12 [HYDRALAZINE] |  |  | Stability (Liver microsomes [1]): Unstable
CN(C)/N=N/c1[nH]cnc1C(N)=O [DACARBAZINE] | Unstable |  | 
CC[C@H](C)C(=O)O[C@H]1C[C@@H](C)C=C2C=C[C@H](C)[C@H](CC[C@@H]3C[C@@H](O)CC(=O)O3)[C@H]21 [LOVASTATIN] |  |  | Stability (Liver microsomes [1]): Unstable
COc1ccc2[nH]c([S+]([O-])Cc3ncc(C)c(OC)c3C)nc2c1 (stereo not drawn) [OMEPRAZOLE] | Unstable |  | IC50 shift at 0.5 h (CYP3A4): 2; IC50 shift at 0.5 h (CYP2C19): < 2
O=NN(CCCl)C(=O)NCCCl [CARMUSTINE] |  |  | Stability (Liver microsomes [1]): Unstable
CCC(C)(C)C(=O)O[C@H]1C[C@@H](C)C=C2C=C[C@H](C)[C@H](CC[C@@H]3C[C@@H](O)CC(=O)O3)[C@H]21 [SIMVASTATIN] | Unstable |  | 
CN(C)C(=O)Oc1cccc([N+](C)(C)C)c1.[Br-] [NEOSTIGMINE BROMIDE] |  | Stable | 

SMILES | Stability (Liver microsomes [2]) | Stability (Liver microsomes [3]) | further results
CN[C@@H](C)Cc1ccccc1 [METHAMPHETAMINE] |  | Stable | 
CC(C)NNC(=O)c1ccncc1 [IPRONIAZID] |  | Stable | IC50 shift at 0.5 h (CYP3A4; probe diethoxyfluorescein): > 5
O=C(O)[C@H]1/C(=C/CO)O[C@@H]2CC(=O)N21 [CLAVULANIC ACID] | Unstable |  | 
CCN1CCN(C(=O)N[C@@H](C(=O)N[C@@H]2C(=O)N3C(C(=O)O)=C(CSc4nnnn4C)CS[C@H]23)c2ccc(O)cc2)C(=O)C1=O [CEFOPERAZONE] |  | Stable | 
Cn1cnc([N+](=O)[O-])c1Sc1ncnc2nc[nH]c12 [AZATHIOPRINE] | Unstable |  | 
C[C@H]1[C@H](NC(=O)/C(=N\OC(C)(C)C(=O)O)c2csc(N)n2)C(=O)N1S(=O)(=O)O [AZTREONAM] | Unstable |  | 
NC(=O)c1cnccn1 [PYRAZINAMIDE] |  | Stable | 
Sc1ncnc2nc[nH]c12 [MERCAPTOPURINE ANHYDROUS] | Unstable |  | 
O=c1[nH]c(=O)n([C@H]2C[C@H](O)[C@@H](CO)O2)cc1F [FLOXURIDINE] |  | Stable | 
CCN1CCCC1CNC(=O)c1cc(S(N)(=O)=O)ccc1OC (stereo not drawn) [SULPIRIDE] |  | Stable | 
NC(=O)C[S+]([O-])C(c1ccccc1)c1ccccc1 (stereo not drawn) [MODAFINIL] |  | Stable | 
CN(C)[C@@H]1C(O)=C(C(N)=O)C(=O)[C@@]2(O)C(O)=C3C(=O)c4c(O)cccc4[C@@](C)(O)[C@H]3C[C@@H]12 [TETRACYCLINE] |  |  | Stability (Liver microsomes [1]): Unstable
CNC1(C)C2CCC(C2)C1(C)C (stereo not drawn) [MECAMYLAMINE] |  | Stable | IC50 shift at 0.5 h (CYP2C19): < 2
Cc1ccccc1C(OCCN(C)C)c1ccccc1 (stereo not drawn) [ORPHENADRINE] |  | Stable | 
Cc1cccc(Nc2ccncc2S(=O)(=O)NC(=O)NC(C)C)c1 [TORSEMIDE] |  | Stable | 
CCCNC(=O)NS(=O)(=O)c1ccc(Cl)cc1 [CHLORPROPAMIDE] |  | Stable | 
CC(C)(C)NC(=O)[C@H]1CC[C@H]2[C@@H]3CC[C@H]4NC(=O)C=C[C@]4(C)[C@H]3CC[C@]12C [FINASTERIDE] |  | Stable | 
CN(CCOc1ccc(NS(C)(=O)=O)cc1)CCc1ccc(NS(C)(=O)=O)cc1 [DOFETILIDE] |  |  | Stability (Liver microsomes [1]): Unstable
CNCCCC12CCC(c3ccccc31)c1ccccc12 [MAPROTILINE] |  | Stable | 
O=C(O)Cc1ccccc1Nc1c(Cl)cccc1Cl [DICLOFENAC] |  |  | Stability (Liver microsomes [1]): Unstable
CCOC(=O)C(C)(C)Oc1ccc(Cl)cc1 [CLOFIBRATE] |  | Stable | 
CC[C@H]1OC(=O)[C@H](C)[C@@H](O[C@H]2C[C@@](C)(OC)[C@@H](O)[C@H](C)O2)[C@H](C)[C@@H](O[C@@H]2O[C@H](C)C[C@H](N(C)C)[C@H]2O)[C@](C)(O)C[C@@H](C)C(=O)[C@H](C)[C@@H](O)[C@]1(C)O [ERYTHROMYCIN] |  | Stable | 
CCN(CC)Cc1cc(Nc2ccnc3cc(Cl)ccc23)ccc1O.Cl |  | Unstable | 
